Patent US20040162247A1, “Therapeutic agent or osteoporosis comprising an active ingredient of quercetin derivatives” (priority 2000, published 2004)

Tests used:
[1] = test system: ovariectomized rats; test: Biochemical parameters in plasma of ovariectomized rats; assay type: in vivo, Female SD (Sprague-Dawley) rats
Procedure: (§1) When test agents were administered, for a certain period of time before and after administration, 1.5 ml of blood was sampled from tail vein using a catheter (B.D Co.: 24 G) and subjected to complete blood count (Coulter Co.: JT) and biochemical analyses of plasma (Crone Co.: Airon® 200). During autopsy, blood was sampled from caudal venae cavae and subjected to the analyses above. And then, each sample was frozen to store for measurement of trabecular bone area of femur and examination of internal organs.
Since blood reflects the condition of body, safety of quercetin in the body was evaluated by measuring biochemical parameters: that is, blood samples were obtained from the rat prior to operation, one week after operation, and 10 weeks after operation, and measured were levels of alkaline phosphatase (ALP), calcium, inorganic phosphate, blood urea nitrogen (BUN), creatinin, total cholesterol, HDL-cholesterol and LDL-cholesterol (see: Table 8).

[2] = test system: ovariectomized rats; test: Trabecular bone area of tibia in ovariectomized rats;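 as to Change Rate (%) of TBA of tibia, of control group: control group rats were ovariectomized and are not the sham group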; assay type: in vivo, Female SD (Sprague-Dawley) rats; settings: OVX rats, 9 weeks i.p. (E2 1 μg/kg/day; quercetin, genistein 10 mg/kg/day); for Change Rate (%) of TBA of tibia, of control group: control group = 100
Procedure: (§2) Trabecular bone area (TBA) of lumbar and tibia removed from the rats of each group which was treated with various agents for 9 weeks were measured as follows: that is, using a digitalizer of quantitative image analysis system (Wild Leitz Co.), image of each trabecula was obtained on computer monitor by drawing a contour of the trabecula, and then, using a computer, calculated were average areas of trabeculae within a rectangle of 2×10^6 μm^2 area wherein the width is about ⅔ of the length of growth plate which located underneath of growth plate at proximity of tibia. Also, following the number of trabeculae within the rectangle were obtained, average area was multiplied by the number of trabeculae to obtain trabecular bone area of each sample bone, which was analyzed statistically (see: Table 5).

[3] = test system: ovariectomized rats; test: Trabecular bone area of lumbars in ovariectomized rats;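 as to Change Rate (%) of TBA of lumbars, of control group: control group rats were ovariectomized and are not the sham group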; assay type: in vivo, Female SD (Sprague-Dawley) rats; settings: OVX rats, 9 weeks i.p. (E2 1 μg/kg/day; quercetin, genistein 10 mg/kg/day); for Change Rate (%) of TBA of lumbars, of control group: control group = 100
Procedure: as §2
TBAs of lumbars removed from the animal treated with test agents for 9 weeks were measured employing the same method above (see: Table 6).

[4] = test system: ALP activity in osteoblasts (Saos-2); test: Alkaline phosphatase (ALP) activity in osteoblasts; assay type: cell-based, human; settings: Saos-2, 3 days
Procedure: Since osteoblasts have cell specific alkaline phosphatase activity, the effect of quercetin of the invention on ALP activity in osteoblasts was evaluated as follows: the number of cells, concentration of tested agent, and culture condition were same as those used in MTT experiment of Example 1-2, and cells were harvested after 3 day-incubation. Genistein was used as a comparative agent. ALP activity was evaluated by analysing changes of OD at 405 nm result from hydrolysis of p-nitrophenylphosphate to p-nitrophenol and phosphate (see: Table 1).

[5] = test system: ovariectomized rats; test: Complete blood count in ovariectomized rats; assay type: in vivo, Female SD (Sprague-Dawley) rats
Procedure: as §1
Complete blood count which reflects the condition and abnormality of the body was measured to find out abnormality in test animals caused by administrtion of agents. That is, to find out changes in hematopoiesis of test rats, measured were red blood cell (RBC) count, concentration of hemoglobin (Hb) and hematocrit (Ht) of-blood samples obtained from the rats prior to operation and the rats 10 weeks after administrating agents following operation, and to find out changes in immune system such as inflammation and necrosis of tissues, measured were white blood cell count, lymphocyte count, monocyte count, and granulocyte count (see: Table 7).

[6] = test system: human osteoblast-like cell line Saos-2; test: Cell proliferation of Saos-2 cells, MTT method; assay type: cell-based; settings: Saos-2, 3 days
Procedure: Saos-2 cell line which has similar properties to osteoblasts was obtained from Korean Cell Line Bank affiliated to the Cancer Research Institute of School of Medicine, Seoul National University.
Saos-2 cells were seeded in a RPMI 1640 medium (Gibco BRL, U.S.A.) supplemented with 10% (v/v) FBS, 100 unit/ml penicillin, 100 gg/ml streptomycin and grown to form a monolayer in an incubator at 37° C. under an environment of 5% (v/v) CO2 and saturated humidity. The culture was fed with fresh medium 2 to 3 times a week and subcultured once a week using 0.25% (w/v) trypsin.
Saos-2 cells were distributed into a 96-well plate (20,000 cells/well) and quercetin in 1% DMSO was added to a final concentration of 10-2 to 10^−9 mg/ml, 6 wells per each concentration. As a control group, cells without quercetin were used, and as a comparative group, the cells treated with various concentrations of genistein, being studied as a therapeutic agent for osteoporosis, were used. Cells were grown in an incubator at 37° C. for 3 days and incubated 4 more hours under the same condition after adding MTT (3-[4,5-dimethylthiazol-2-yl]-2,5-diphenyltetrazolium bromide, Triazolyl Blue) to a concentration of 0.05 mg/ml. Then, purple colored for-mazan formed in proportion to the number of viable cells was dissolved in DMSO and measured OD at 550 nm employing ELISA reader.
Cell proliferation rate (%) was evaluated by calculating the ratio of the OD of quercetin added well to the OD of control well, wherein, average value of ODs from 6 wells treated with the same concentration of quercetin was employed (see: Table 1).
cell proliferation rate (%)={(average value of OD at 550 nm of quercetin-treated wells—average value of OD at 550 nm of empty wells)/average value of OD at 550 nm of control wells}×100

[7] = 1 week after operation (start of administration)
[8] = 10 weeks after operation, 9 weeks i.p. (E2 1 μg/kg/day; quercetin, genistein 10 mg/kg/day)
[9] = after operation and drug administration (E2 1 μg/kg/day; quercetin, genistein 10 mg/kg/day i.p.)

## O=c1c(-c2ccc(O)cc2)coc2cc(O)cc(O)c12 [Genistein, genistein]
[1]; [7]
  Concentration of ALP in plasma: 212.10 ± 17.92 U/dL
  Concentration of HDL-cholesterol in plasma: 35.26 ± 1.92 mg/dL
  Concentration of LDL-cholesterol in plasma: 60.47 ± 7.04 mg/dL
  Concentration of blood urea nitrogen (BUN): 18.26 ± 0.94 mg/dL
  Concentration of calcium in plasma: 8.97 ± 0.29 mg/dL
  Concentration of creatinin in plasma: 0.64 ± 0.02 mg/dL
  Concentration of inorganic phosphate in plasma: 6.47 ± 0.16 mg/dL
  Concentration of total cholesterol in plasma: 91.56 ± 3.65 mg/dL
[1]; [8]
  Concentration of ALP in plasma: 127.14 ± 9.95^##$$ U/dL
  Concentration of HDL-cholesterol in plasma: 29.27 ± 1.98 mg/dL
  Concentration of LDL-cholesterol in plasma: 91.80 ± 6.57^##$$ mg/dL
  Concentration of blood urea nitrogen (BUN): 18.31 ± 0.86 mg/dL
  Concentration of calcium in plasma: 10.44 ± 0.22^$ mg/dL
  Concentration of creatinin in plasma: 0.82 ± 0.04^##$ mg/dL
  Concentration of inorganic phosphate in plasma: 5.62 ± 0.25 mg/dL
  Concentration of total cholesterol in plasma: 121.07 ± 6.53 mg/dL
[1]; OVX rats, 10 mg/kg/day i.p.
  Level of inorganic phosphate 10 weeks after operation versus prior to operation (in words): remarkably decreased
  Plasma ALP activity 10 weeks after operation versus prior to and one week after operation (in words): significant decrease of ALP activity
[1]; before operation (baseline)
  Concentration of ALP in plasma: 208.86 ± 19.72 U/dL
  Concentration of HDL-cholesterol in plasma: 61.12 ± 3.57 mg/dL
  Concentration of LDL-cholesterol in plasma: 24.39 ± 3.63 mg/dL
  Concentration of blood urea nitrogen (BUN): 16.82 ± 0.60 mg/dL
  Concentration of calcium in plasma: 10.61 ± 0.49 mg/dL
  Concentration of creatinin in plasma: 0.51 ± 0.04 mg/dL
  Concentration of inorganic phosphate in plasma: 7.18 ± 0.48 mg/dL
  Concentration of total cholesterol in plasma: 85.51 ± 5.45 mg/dL
[2]
  TBA (trabecular bone area) of tibia: 47.65 ± 2.07 ×10^4 μm^2
  Change Rate (%) of TBA of tibia, of control group: 137.62 ± 5.98%
[2]; listed as genistein
  Change Rate (%) of TBA of tibia, of control group: 138%
[3]
  TBA (trabecular bone area) of lumbars: 86.58 ± 3.00 ×10^4 μm^2
  Change Rate (%) of TBA of lumbars, of control group: 128.23 ± 4.45 %
[3]; listed as genistein
  Change Rate (%) of TBA of lumbars, of control group: 128%
[4]; 1 × 10^−2 mg/ml
  ALP activity (% of control group): 62.3 ± 3.4 % of control group
[4]; 1 × 10^−3 mg/ml
  ALP activity (% of control group): 98.8 ± 6.9 % of control group
[4]; 1 × 10^−4 mg/ml
  ALP activity (% of control group): 121.1 ± 6.2 % of control group
[4]; 1 × 10^−4 mg/ml, listed as genistein
  ALP activity (% of control group): 121 % of control group
[4]; 1 × 10^−5 mg/ml
  ALP activity (% of control group): 113.5 ± 7.3 % of control group
[4]; 1 × 10^−6 mg/ml
  ALP activity (% of control group): 103.8 ± 8.7 % of control group
[4]; 1 × 10^−7 mg/ml
  ALP activity (% of control group): 109.3 ± 9.6 % of control group
[4]; 1 × 10^−8 mg/ml
  ALP activity (% of control group): 101.5 ± 8.8 % of control group
[4]; 1 × 10^−9 mg/ml
  ALP activity (% of control group): 106.1 ± 6.4 % of control group
[5]; OVX rats after drug administration
  White blood cell count, before versus after operation (in words): did not show any changes
[5]; [9]
  Concentration of hemoglobin(Hb): 14.70 ± 0.22 g/dL
  Granulocyte count: 2.38 ± 0.37 ×10^3 cells/μl
  Hematocrit(Ht): 40.66 ± 0.56 %
  Lymphocyte count: 15.25 ± 3.21 ×10^3 cells/μl
  Monocyte count: 0.80 ± 0.19 ×10^3 cells/μl
  Red blood cell(RBC) count: 7.17 ± 0.13 ×10^6 cells/μl
  White blood cell count: 21.50 ± 2.53 ×10^3 cells/μl
[5]; before operation (baseline)
  Concentration of hemoglobin(Hb): 15.82 ± 0.27 g/dL
  Granulocyte count: 2.23 ± 0.10 ×10^3 cells/μl
  Hematocrit(Ht): 42.76 ± 0.65%
  Lymphocyte count: 19.68 ± 4.52 ×10^3 cells/μl
  Monocyte count: 0.77 ± 0.09 ×10^3 cells/μl
  Red blood cell(RBC) count: 7.32 ± 0.13 ×10^6 cells/μl
  White blood cell count: 27.30 ± 4.85 ×10^3 cells/μl
[6]; 1 × 10^−2 mg/ml
  MTT assay (% of control group): 66.2 ± 2.8 % of control group
[6]; 1 × 10^−2 mg/ml, listed as genistein
  MTT assay (% of control group): 66 % of control group
[6]; 1 × 10^−3 mg/ml
  MTT assay (% of control group): 85.5 ± 1.1 % of control group
[6]; 1 × 10^−3 mg/ml, listed as genistein
  MTT assay (% of control group): 86 % of control group
[6]; 1 × 10^−4 mg/ml
  MTT assay (% of control group): 95.7 ± 0.7 % of control group
[6]; 1 × 10^−5 mg/ml
  MTT assay (% of control group): 97.3 ± 1.6 % of control group
[6]; 1 × 10^−6 mg/ml
  MTT assay (% of control group): 90.5 ± 0.9 % of control group
[6]; 1 × 10^−6 mg/ml, listed as genistein
  MTT assay (% of control group): 90.5 % of control group
[6]; 1 × 10^−7 mg/ml
  MTT assay (% of control group): 95.9 ± 1.6 % of control group
[6]; 1 × 10^−8 mg/ml
  MTT assay (% of control group): 96.9 ± 2.7 % of control group
[6]; 1 × 10^−9 mg/ml
  MTT assay (% of control group): 91.3 ± 0.6 % of control group
[6]; 1 × 10^−9 mg/ml, listed as genistein
  MTT assay (% of control group): 91 % of control group
